Assay results reported in patent US4753953A, “Pyridonecarboxylic acid derivatives and antibacterial pharmaceutical compositions thereof” (priority 1985, dated 1988).
Converted amounts (≈) assume the structure as drawn. Like-named read-outs stand apart in the source and are kept apart here.

Legend:
[1] = tested on: Propionibacterium acens 11828; assay: MIC, in vitro antibacterial activity (standard strains); assay type: cell-based; settings: Propionibacterium, 11828; 10^6 cells/ml; Gram +; read-out: MIC
C. perfringens KYA 13123 = assay: microbe, parasite or virus in culture; assay type: cell-based; settings: Clostridium perfringens, KYA13123
P. cepacia GIFU 518 = assay: MIC, in vitro antibacterial activity (standard strains); assay type: cell-based; settings: Burkholderia cepacia, GIFU518
F. necrophorum S-45 = assay: as above; assay type: cell-based; settings: Fusobacterium necrophorum, S45; 10^6 cells/ml; Gram -; read-out: MIC
[2] = tested on: Yersinia enterocolitica IID 981; assay: as above; assay type: cell-based; settings: Yersinia enterocolitica, IID981; 10^6 cells/ml; Gram -; read-out: MIC
[3] = tested on: Staphylococcus aureus 209 P; assay: as above; assay type: cell-based; settings: Staphylococcus aureus, 209P; 10^6 cells/ml; Gram +; read-out: MIC
[4] = tested on: Serratia marcescens IID 618; assay: as above; assay type: cell-based; settings: Serratia marcescens, IID618; 10^6 cells/ml; Gram -; read-out: MIC
E. limosum KYA 8486 = assay: as above; assay type: cell-based; settings: Eubacterium limosum, KYA8486; 10^6 cells/ml; Gram +; read-out: MIC
[5] = tested on: Acinetobacter anitratus IID 876; assay: as above; assay type: cell-based; settings: Acinetobacter calcoaceticus, IID876; 10^6 cells/ml; Gram -; read-out: MIC
[6] = tested on: Eubacterium lentum GAI 5242; assay: as above; assay type: cell-based; settings: Eggerthella lenta, GAI5242; 10^6 cells/ml; Gram +; read-out: MIC
Shigella sonnei IID 969 = assay: as above; assay type: cell-based; settings: Shigella sonnei, IID969; 10^6 cells/ml; Gram -; read-out: MIC
Protocol: Minimal inhibitory concentrations (MICs) were determined in accordance with the method recommended by Japan Society of Chemotherapy.

[7] = tested on: Peptococcus magnus KY 017; assay: as above; assay type: cell-based; settings: Finegoldia magna, KY017; 10^6 cells/ml; Gram +; read-out: MIC
P. aeruginosa IFO 12689 = assay: as above; assay type: cell-based, Pseudomonas aeruginosa; settings: Pseudomonas aeruginosa, IFO12689
B. fragilis 0558 = assay: as above; assay type: cell-based, Bacteroides fragilis; settings: Bacteroides fragilis, 0558; 10^6 cells/ml; Gram -; read-out: MIC
[8] = tested on: Alcaligenes faecalis 0114002; assay: as above; assay type: cell-based; settings: Alcaligenes faecalis, 0114002; 10^6 cells/ml; Gram -; read-out: MIC
E. coli ML 4707 = assay: as above; assay type: cell-based, Escherichia coli; settings: Escherichia coli, ML4707, 10^6 cells/ml; Gram -; Table 1; read-out: MIC
[9] = tested on: Enterobacter cloacae IID 977; assay: as above; assay type: cell-based; settings: Enterobacter cloacae, IID977; 10^6 cells/ml; Gram -; read-out: MIC
[10] = 10^6 cells/ml, Gram -, read-out: MIC

| SMILES | MIC [1] [µg/mL] | MIC (C. perfringens KYA 13123) [µg/mL] | MIC (P. cepacia GIFU 518) [µg/mL] | MIC (F. necrophorum S-45) [µg/mL] | MIC [2] [µg/mL] | MIC [3] [µg/mL] | MIC [4] [µg/mL] | MIC (E. limosum KYA 8486) [µg/mL] | MIC [5] [µg/mL] | MIC [6] [µg/mL] | MIC (Shigella sonnei IID 969) [µg/mL] | MIC [7] [µg/mL] | MIC (P. aeruginosa IFO 12689; [10]) [µg/mL] | MIC (B. fragilis 0558) [µg/mL] | MIC [8] [µg/mL] | MIC (E. coli ML 4707) [µg/mL] | MIC [9] [µg/mL] | MIC (P. aeruginosa IFO 12689) [µg/mL] |
| --- | --- | --- | --- | --- | --- | --- | --- | --- | --- | --- | --- | --- | --- | --- | --- | --- | --- | --- |
| CCn1cc(C(=O)O)c(=O)c2cc(F)c(N3C[C@@H](N)[C@@H](C)C3)c(F)c21 (relative stereo) [Example 22, 7-(cis-3-Amino-4-methyl-1-pyrrolidinyl)-1-ethyl-6,8-difluoro-1,4-dihydro-4-oxo-3-quinolinecarboxylic acid] | 25 (≈ 71.2 µM) | 0.78 (≈ 2.22 µM) | 0.78 (≈ 2.22 µM) | 3.13 (≈ 8.91 µM) | 0.1 (≈ 0.285 µM) | 0.1 (≈ 0.285 µM) | 0.1 (≈ 0.285 µM) | 6.25 (≈ 17.8 µM) | 0.39 (≈ 1.11 µM) | 1.56 (≈ 4.44 µM) | 0.1 (≈ 0.285 µM) | 1.56 (≈ 4.44 µM) | 1.56 (≈ 4.44 µM) | 1.56 (≈ 4.44 µM) | 1.56 (≈ 4.44 µM) | 0.05 (≈ 0.142 µM) | 0.1 (≈ 0.285 µM) |  |
| CCNCC1CN(c2c(F)cc3c(=O)c(C(=O)O)cn(C4CC4)c3c2F)CC1C (stereo not shown) [Example 15, 1-Cyclopropyl-7-(3-ethylaminomethyl-4-methyl-1-pyrrolidinyl)-6,8-difluoro-1,4-dihydro-4-oxo-3-quinolinecarboxylic acid] | 3.13 (≈ 7.72 µM) | 0.1 (≈ 0.247 µM) | 0.78 (≈ 1.92 µM) | 0.39 (≈ 0.962 µM) | 0.2 (≈ 0.493 µM) | 0.05 (≈ 0.123 µM) | 0.2 (≈ 0.493 µM) | 1.56 (≈ 3.85 µM) | 0.1 (≈ 0.247 µM) | 0.39 (≈ 0.962 µM) | 0.05 (≈ 0.123 µM) | ≤ 0.05 | 3.13 (≈ 7.72 µM) | 0.39 (≈ 0.962 µM) | 0.78 (≈ 1.92 µM) | 0.05 (≈ 0.123 µM) | 0.2 (≈ 0.493 µM) |  |
| CCNCC1CN(c2c(F)cc3c(=O)c(C(=O)O)cn(C4CC4)c3c2Cl)CC1C (stereo not shown) [Example 14, 8-Chloro-1-cyclopropyl-7-(3-ethylaminomethyl-4-methyl-1-pyrrolidinyl)-6-fluoro-1,4-dihydro-4-oxo-3-quinolinecarboxylic acid] | 1.56 (≈ 3.7 µM) | ≤ 0.05 | 0.78 (≈ 1.85 µM) | 0.1 (≈ 0.237 µM) | 0.2 (≈ 0.474 µM) | 0.0125 (≈ 0.0296 µM) | 0.2 (≈ 0.474 µM) | 0.78 (≈ 1.85 µM) | 0.1 (≈ 0.237 µM) | 0.2 (≈ 0.474 µM) | 0.025 (≈ 0.0593 µM) | ≤ 0.05 | 3.13 (≈ 7.42 µM) | ≤ 0.05 | 0.78 (≈ 1.85 µM) | 0.05 (≈ 0.119 µM) | 0.2 (≈ 0.474 µM) |  |
| CC1CN(c2c(F)cc3c(=O)c(C(=O)O)cn(C4CC4)c3c2Cl)CC1N (stereo not shown) [Example 7, 7-(3-Amino-4-methyl-1-pyrrolidinyl)-8-chloro-1-cyclopropyl-6-fluoro-1,4-dihydro-4-oxo-3-quinolinecarboxylic acid] | 0.78 (≈ 2.05 µM) | 0.1 (≈ 0.263 µM) | 0.2 (≈ 0.527 µM) | 0.2 (≈ 0.527 µM) | 0.025 (≈ 0.0658 µM) | 0.025 (≈ 0.0658 µM) | 0.05 (≈ 0.132 µM) | 0.2 (≈ 0.527 µM) | 0.025 (≈ 0.0658 µM) | 0.1 (≈ 0.263 µM) | 0.0063 (≈ 0.0166 µM) | 0.05 (≈ 0.132 µM) | 0.39 (≈ 1.03 µM) | 0.05 (≈ 0.132 µM) | 0.1 (≈ 0.263 µM) | 0.0125 (≈ 0.0329 µM) | 0.05 (≈ 0.132 µM) |  |
| CCn1cc(C(=O)O)c(=O)c2cc(F)c(N3C[C@@H](N)[C@@H](C)C3)c(Cl)c21 (relative stereo) [Example 23, 7-(cis-3-Amino-4-methyl-1-pyrrolidinyl)-8-chloro-1-ethyl-6-fluoro-1,4-dihydro-4-oxo-3-quinolinecarboxylic acid] | 12.5 (≈ 34 µM) | 0.78 (≈ 2.12 µM) | 0.78 (≈ 2.12 µM) | 1.56 (≈ 4.24 µM) | 0.05 (≈ 0.136 µM) | 0.1 (≈ 0.272 µM) | 0.05 (≈ 0.136 µM) | 6.25 (≈ 17 µM) | 0.39 (≈ 1.06 µM) | 1.56 (≈ 4.24 µM) | 0.05 (≈ 0.136 µM) | 0.78 (≈ 2.12 µM) | 1.56 (≈ 4.24 µM) | 0.78 (≈ 2.12 µM) | 1.56 (≈ 4.24 µM) | 0.05 (≈ 0.136 µM) | 0.1 (≈ 0.272 µM) |  |
| C[C@H]1CN(c2c(F)cc3c(=O)c(C(=O)O)cn(CCF)c3c2Cl)C[C@H]1N (relative stereo) [Example 27, 7-(cis-3-Amino-4-methyl-1-pyrrolidinyl)-8-chloro-6-fluoro-1-(2-fluoroethyl)-1,4-dihydro-4-oxo-3-quinolinecarboxylic acid] | 12.5 (≈ 32.4 µM) | 0.39 (≈ 1.01 µM) | 0.78 (≈ 2.02 µM) | 1.56 (≈ 4.04 µM) | 0.1 (≈ 0.259 µM) | 0.2 (≈ 0.518 µM) | 0.1 (≈ 0.259 µM) | 6.25 (≈ 16.2 µM) | 1.56 (≈ 4.04 µM) | 0.78 (≈ 2.02 µM) | 0.78 (≈ 2.02 µM) | 0.78 (≈ 2.02 µM) |  | 1.56 (≈ 4.04 µM) | 0.78 (≈ 2.02 µM) | 0.05 (≈ 0.13 µM) | 0.1 (≈ 0.259 µM) | 3.13 (≈ 8.11 µM) |
| CNCC1CN(c2c(F)cc3c(=O)c(C(=O)O)cn(C4CC4)c3c2F)CC1C (stereo not shown) [Example 13, 1-Cyclopropyl-6,8-difluoro-1,4-dihydro-7-(3-methylaminomethyl-4-methyl-1-pyrrolidinyl)-4-oxo-3-quinolinecarboxylic acid] | 1.56 (≈ 3.99 µM) | 0.2 (≈ 0.511 µM) | 0.78 (≈ 1.99 µM) | 0.39 (≈ 0.996 µM) | 0.1 (≈ 0.255 µM) | 0.05 (≈ 0.128 µM) | 0.2 (≈ 0.511 µM) | 1.56 (≈ 3.99 µM) | 0.1 (≈ 0.255 µM) | 0.78 (≈ 1.99 µM) | 0.05 (≈ 0.128 µM) | ≤ 0.05 | 3.13 (≈ 8 µM) | 0.78 (≈ 1.99 µM) | 0.78 (≈ 1.99 µM) | 0.05 (≈ 0.128 µM) | 0.2 (≈ 0.511 µM) |  |
| CC1CN(c2c(F)cc3c(=O)c(C(=O)O)cn(C4CC4)c3c2Cl)CC1CN (stereo not shown) [Example 1, 7-(3-Aminomethyl-4-methyl-1-pyrrolidinyl)-8-chloro-1-cyclopropyl-6-fluoro-1,4-dihydro-4-oxo-3-quinolinecarboxylic acid] | 0.2 (≈ 0.508 µM) | ≤ 0.05 | 0.39 (≈ 0.99 µM) | 0.1 (≈ 0.254 µM) | 0.05 (≈ 0.127 µM) | 0.0125 (≈ 0.0317 µM) | 0.1 (≈ 0.254 µM) | 0.39 (≈ 0.99 µM) | 0.05 (≈ 0.127 µM) | 0.2 (≈ 0.508 µM) | 0.025 (≈ 0.0635 µM) | ≤ 0.05 | 0.78 (≈ 1.98 µM) | ≤ 0.05 | 0.2 (≈ 0.508 µM) | 0.025 (≈ 0.0635 µM) | 0.05 (≈ 0.127 µM) |  |
